Measured values published in PubChem BioAssay (NCI).
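Cultured in 96-well plates, cells were exposed to test compound for 48 hours across five concentrations. Definition used: TGI = concentration required for complete inhibition of growth.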

What was measured:
Assay in all cases: NCI anticancer screen, dose series, 48 h
786-0 renal = tested on: 786-0 renal
A498 renal = tested on: A498 renal
A549 NSCLC = tested on: A549 NSCLC
ACHN renal = tested on: ACHN renal
BT-549 breast = tested on: BT-549 breast
CAKI-1 renal = tested on: CAKI-1 renal
CCRF-CEM leukemia = tested on: CCRF-CEM leukemia
COLO 205 colon = tested on: COLO 205 colon
DU-145 prostate = tested on: DU-145 prostate
EKVX NSCLC = tested on: EKVX NSCLC
HCC-2998 colon = tested on: HCC-2998 colon
HCT-116 colon = tested on: HCT-116 colon
HCT-15 colon = tested on: HCT-15 colon
HL-60(TB) leukemia = tested on: HL-60(TB) leukemia
HOP-62 NSCLC = tested on: HOP-62 NSCLC
HOP-92 NSCLC = tested on: HOP-92 NSCLC
HS 578T breast = tested on: HS 578T breast
HT29 colon = tested on: HT29 colon
IGROV1 ovarian = tested on: IGROV1 ovarian
K-562 leukemia = tested on: K-562 leukemia
KM12 colon = tested on: KM12 colon
LOX IMVI melanoma = tested on: LOX IMVI melanoma
M14 melanoma = tested on: M14 melanoma
MALME-3M melanoma = tested on: MALME-3M melanoma
MCF7 breast = tested on: MCF7 breast
MDA-MB-231 breast = tested on: MDA-MB-231 breast
MDA-MB-435 = tested on: MDA-MB-435
MDA-N = tested on: MDA-N
MOLT-4 leukemia = tested on: MOLT-4 leukemia
NCI-H226 lung = tested on: NCI-H226 lung
NCI-H23 lung = tested on: NCI-H23 lung
NCI-H460 lung = tested on: NCI-H460 lung
NCI-H522 lung = tested on: NCI-H522 lung
NCI/ADR-RES ovarian = tested on: NCI/ADR-RES ovarian
OVCAR-3 ovarian = tested on: OVCAR-3 ovarian
OVCAR-4 ovarian = tested on: OVCAR-4 ovarian
OVCAR-5 ovarian = tested on: OVCAR-5 ovarian
OVCAR-8 ovarian = tested on: OVCAR-8 ovarian
PC-3 prostate = tested on: PC-3 prostate
RPMI-8226 leukemia = tested on: RPMI-8226 leukemia
RXF 393 renal = tested on: RXF 393 renal
SF-268 CNS = tested on: SF-268 CNS
SF-295 CNS = tested on: SF-295 CNS
SF-539 CNS = tested on: SF-539 CNS
SK-MEL-2 melanoma = tested on: SK-MEL-2 melanoma
SK-MEL-28 melanoma = tested on: SK-MEL-28 melanoma
SK-MEL-5 melanoma = tested on: SK-MEL-5 melanoma
SK-OV-3 ovarian = tested on: SK-OV-3 ovarian
SN12C renal = tested on: SN12C renal
SNB-19 CNS = tested on: SNB-19 CNS
SR leukemia = tested on: SR leukemia
SW-620 colon = tested on: SW-620 colon
T-47D breast = tested on: T-47D breast
TK-10 renal = tested on: TK-10 renal
U251 CNS = tested on: U251 CNS
UACC-257 melanoma = tested on: UACC-257 melanoma
UACC-62 melanoma = tested on: UACC-62 melanoma
UO-31 renal = tested on: UO-31 renal
SNB-75 CNS = tested on: SNB-75 CNS

O=C(O)c1nc2cc(Cl)ccc2[nH]c1=O
TGI (786-0 renal): > 100 µM
TGI (A498 renal): > 100 µM
TGI (A549 NSCLC): > 100 µM
TGI (ACHN renal): > 100 µM
TGI (BT-549 breast): > 100 µM
TGI (CAKI-1 renal): > 100 µM
TGI (CCRF-CEM leukemia): > 100 µM
TGI (COLO 205 colon): > 100 µM
TGI (DU-145 prostate): > 100 µM
TGI (EKVX NSCLC): > 100 µM
TGI (HCC-2998 colon): > 100 µM
TGI (HCT-116 colon): > 100 µM
TGI (HCT-15 colon): > 100 µM
TGI (HL-60(TB) leukemia): > 100 µM
TGI (HOP-62 NSCLC): > 100 µM
TGI (HOP-92 NSCLC): > 100 µM
TGI (HS 578T breast): > 100 µM
TGI (HT29 colon): > 100 µM
TGI (IGROV1 ovarian): > 100 µM
TGI (K-562 leukemia): > 100 µM
TGI (KM12 colon): > 100 µM
TGI (LOX IMVI melanoma): > 100 µM
TGI (M14 melanoma): > 100 µM
TGI (MALME-3M melanoma): > 100 µM
TGI (MCF7 breast): > 100 µM
TGI (MDA-MB-231 breast): > 100 µM
TGI (MDA-MB-435): > 100 µM
TGI (MDA-N): > 100 µM
TGI (MOLT-4 leukemia): > 100 µM
TGI (NCI-H226 lung): > 100 µM
TGI (NCI-H23 lung): > 100 µM
TGI (NCI-H460 lung): > 100 µM
TGI (NCI-H522 lung): > 100 µM
TGI (NCI/ADR-RES ovarian): > 100 µM
TGI (OVCAR-3 ovarian): > 100 µM
TGI (OVCAR-4 ovarian): > 100 µM
TGI (OVCAR-5 ovarian): > 100 µM
TGI (OVCAR-8 ovarian): > 100 µM
TGI (PC-3 prostate): > 100 µM
TGI (RPMI-8226 leukemia): > 100 µM
TGI (RXF 393 renal): > 100 µM
TGI (SF-268 CNS): > 100 µM
TGI (SF-295 CNS): > 100 µM
TGI (SF-539 CNS): > 100 µM
TGI (SK-MEL-2 melanoma): > 100 µM
TGI (SK-MEL-28 melanoma): > 100 µM
TGI (SK-MEL-5 melanoma): > 100 µM
TGI (SK-OV-3 ovarian): > 100 µM
TGI (SN12C renal): > 100 µM
TGI (SNB-19 CNS): > 100 µM
TGI (SR leukemia): > 100 µM
TGI (SW-620 colon): > 100 µM
TGI (T-47D breast): > 100 µM
TGI (TK-10 renal): > 100 µM
TGI (U251 CNS): > 100 µM
TGI (UACC-257 melanoma): > 100 µM
TGI (UACC-62 melanoma): > 100 µM
TGI (UO-31 renal): > 100 µM

CC1OC(OC2C(O)COC(OC3C(C)OC(OC4C(OC(=O)[C@]56CCC(C)(C)C[C@@H]5C5=CCC7[C@@]8(C)C[C@H](O)[C@H](OC9OC(CO)C(O)C(O)C9O)[C@@](C)(CO)[C@@H]8CC[C@@]7(C)[C@]5(C)CC6)OCC(O)C4O)C(O)C3O)C2O)C(O)C(O)C1O (some centres undefined)
TGI (786-0 renal): 38 µM
TGI (A498 renal): 36 µM
TGI (A549 NSCLC): 43.6 µM
TGI (ACHN renal): 44.3 µM
TGI (BT-549 breast): 45.7 µM
TGI (CAKI-1 renal): 32 µM
TGI (CCRF-CEM leukemia): 45.8 µM
TGI (COLO 205 colon): 38.7 µM
TGI (DU-145 prostate): 37.5 µM
TGI (EKVX NSCLC): 33.1 µM
TGI (HCC-2998 colon): 38 µM
TGI (HCT-116 colon): 57.2 µM
TGI (HCT-15 colon): 50.8 µM
TGI (HOP-62 NSCLC): 37.7 µM
TGI (HOP-92 NSCLC): 45.2 µM
TGI (HS 578T breast): 60.4 µM
TGI (HT29 colon): 48.8 µM
TGI (K-562 leukemia): > 100 µM
TGI (KM12 colon): > 100 µM
TGI (LOX IMVI melanoma): 46 µM
TGI (M14 melanoma): 41.9 µM
TGI (MALME-3M melanoma): 64.3 µM
TGI (MCF7 breast): > 100 µM
TGI (MDA-MB-231 breast): 40.2 µM
TGI (MDA-MB-435): 57.7 µM
TGI (MDA-N): 42.3 µM
TGI (MOLT-4 leukemia): 48.7 µM
TGI (NCI-H226 lung): 50.2 µM
TGI (NCI-H23 lung): 51.2 µM
TGI (NCI-H460 lung): 48.6 µM
TGI (NCI-H522 lung): > 100 µM
TGI (NCI/ADR-RES ovarian): 44.9 µM
TGI (OVCAR-3 ovarian): 40.6 µM
TGI (OVCAR-4 ovarian): 52.1 µM
TGI (OVCAR-5 ovarian): 36.4 µM
TGI (OVCAR-8 ovarian): 43.4 µM
TGI (PC-3 prostate): 38.3 µM
TGI (RPMI-8226 leukemia): > 100 µM
TGI (RXF 393 renal): 33.5 µM
TGI (SF-268 CNS): 49.4 µM
TGI (SF-295 CNS): 48 µM
TGI (SF-539 CNS): 42.8 µM
TGI (SK-MEL-28 melanoma): 32.2 µM
TGI (SK-MEL-5 melanoma): 39.8 µM
TGI (SK-OV-3 ovarian): 37.8 µM
TGI (SN12C renal): 44.4 µM
TGI (SNB-19 CNS): 38.7 µM
TGI (SNB-75 CNS): 39 µM
TGI (SR leukemia): 46.9 µM
TGI (SW-620 colon): 46.5 µM
TGI (T-47D breast): 47.4 µM
TGI (TK-10 renal): 35.3 µM
TGI (U251 CNS): 54.9 µM
TGI (UACC-257 melanoma): 37 µM
TGI (UACC-62 melanoma): 40.1 µM
TGI (UO-31 renal): 28.4 µM
